Results on 34 molecules are retold here after patent publication US20110021621A1, “Drug for treating circulatory insufficiency” (ACTIVUS PHARMA CO., LTD., priority 2005, published 2011).

The structures appear in SMILES notation. Like-named read-outs stand apart in the source and are kept apart here.

The nature of data set [1]: Stability test in acidic or basic solution (half-life by liquid chromatography). Format: physicochemical. The settings on record: time to 50% residual rate. On the procedure: The test compounds were dissolved in an acidic solution (phosphate buffer (pH3.4)) and in a basic solution (phosphate buffer (pH7.3)) at the concentration of 1 mmoL/L. Immediately after they were dissolved, each solution was analyzed with liquid chromatography using an acidic solution (phosphate buffer (pH3.4)) or basic solution (phosphate buffer (pH7.3)) as an eluent. The peak area of the test compounds was measured as the initial value. Furthermore, a time-course analysis with liquid chromatograpy was conducted to measure the peak area at each time point. The solution containing the test compound was kept in an incubator at 37° C. Based on the measured peak area of the test compounds, the percentage (%) of the peak area at each measurement time point was calculated, taking the peak area of the initial value as 100(%). The half-life (the time to show a 50% residual rate of the test compounds) of the test compounds was further calculated, and its stability was evaluated based on the half-life.

Data set [2] relates to circulatory insufficiency model of rats induced by injection of lauric-acid into their femoral artery. The experiment in a line: Circulatory insufficiency model induced by lauric-acid in rats (lesion index). Format: in vivo, rat. More on the design: key: summed toe lesion grades, +5 if heel reached; max 25 points. The note with it: male Wistar rats, average, max 25 points; for Lesion Index after 10 days: 30 mg/kg multiple oral dosing (1 h prior to and 3 h after lauric-acid, then twice daily for 9 days), 10 days after lauric-acid injection; for Lesion Index after 3 days: 30 mg/kg multiple oral dosing (1 h prior to and 3 h after lauric-acid, then twice daily), 3 days after lauric-acid injection. On the procedure: We performed this test in order to evaluate the pharmacological effect of the compounds of the present invention using a circulatory insufficiency model of rats induced by injection of lauric-acid into their femoral artery.
13-week-old male Wistar rats (body weight is 280 to 316 g), 8 rats per one group, were used. The rats were held in a supine position under anesthesia due to administration of 40 mg/kg of sodium pentobarbital by intraperitoneal injection. Then, the right femoral area was incised, thereby injecting 0.15 mL of 10 mg/mL lauric-acid solution into the femoral artery in order to induce lower limb gangrene caused by the peripheral vascular disorder. A few drops of instant adhesive (Aron-alpha; registered trademark) were used to stop bleeding, followed by topical application of antibiotics (potassium penicillin G solution) to prevent infection, and the incision site was then sutured.
The suspension was administered, by means of multiple oral dosing, 1 hour prior to and 3 hours after injection of lauric-acid and twice daily (at 10:00 and 17:00) for the following 9 days, at the dose of 30 mg/kg for each compound. […] The suspension was administered orally 3 hours prior to injection of lauric-acid at the dose of 300 mg/kg.
The extent of lesions was evaluated 3 days and 10 days after injection of lauric acid by the following criteria:
The lesion of each toe was graded and the total points of 5 toes were use as a lesion index, wherein 5 points were further added when the lesion reached the heel (i.e. the maximum lesion index was 25 points).
The shown number refers to the average value of the lesion index obtained from the evaluation.

In the case of `O=c1oc2ccc(-c3ccccc3)cc2c(O)c1O` [C, reference compound], the half-life at 1 mmoL/L in data set [1] (phosphate buffer pH 3.4, 37° C., read-out: Half-life, pH 3.4 solution (converted)) is 35 h; in data set [1] (phosphate buffer pH 7.3, 37° C., read-out: Half-life, pH 7.3 solution (converted)) it was 65 h.
In the case of `CCCCCCOc1c(O)c2c(O)cccc2oc1=O` [Compound 9], in data set [2], the “Lesion Index after 10 days” value worked out at 7.8 and the “Lesion Index after 3 days” value is reported as 2.5.
As to `CCCCCCOc1c(O)c2cc(O)ccc2oc1=O` [Compound 67], in data set [2], the “Lesion Index after 10 days” value is reported as 7.5 and the “Lesion Index after 3 days” value is 2.8.
For `CCCCCCOc1c(O)c2cc(OCCCC)ccc2oc1=O` [Compound 98], in data set [2], the “Lesion Index after 10 days” value is on record as 8.4 and the “Lesion Index after 3 days” value is 3.0.
Take `CCOc1c(O)c2ccc(O)cc2oc1=O` [Compound 118]: in data set [2], the “Lesion Index after 10 days” value stood at 8.3 and the “Lesion Index after 3 days” value was found to be 2.4.
Consider `CCCOc1c(O)c2ccc(O)cc2oc1=O` [Compound 119], for which, in data set [2], the “Lesion Index after 10 days” value came out at 7.1 and the “Lesion Index after 3 days” value was 2.5.
In the case of `CC(C)Oc1c(O)c2ccc(O)cc2oc1=O` [Compound 120], in data set [2], the “Lesion Index after 10 days” value came out at 8.0 and the “Lesion Index after 3 days” value was determined as 2.3.
With `CCCCOc1c(O)c2ccc(O)cc2oc1=O` [Compound 121], in data set [2], the “Lesion Index after 10 days” value amounted to 7.3 and the “Lesion Index after 3 days” value is listed as 2.8.
Consider `CCCCCOc1c(O)c2ccc(O)cc2oc1=O` [Compound 123], for which, in data set [2], the “Lesion Index after 10 days” value stood at 7.9 and the “Lesion Index after 3 days” value stood at 2.6.
As to `CCC(CC)Oc1c(O)c2ccc(O)cc2oc1=O` [Compound 124], in data set [2], the “Lesion Index after 10 days” value stood at 8.3 and the “Lesion Index after 3 days” value stood at 3.0.
As to `CCCCCCCCOc1c(O)c2ccc(O)cc2oc1=O` [Compound 131], in data set [2], the “Lesion Index after 10 days” value was determined as 7.5 and the “Lesion Index after 3 days” value was found to be 3.0.
In the case of `CC(C)=CCCC(C)=CCOc1c(O)c2ccc(O)cc2oc1=O` [Compound 141], in data set [2], the “Lesion Index after 10 days” value is given as 7.8 and the “Lesion Index after 3 days” value was 2.6.
On to `CC(C)=CCCC(C)=CCOc1ccc2c(O)c(OCC=C(C)CCC=C(C)C)c(=O)oc2c1` [Compound 174], for which, in data set [2], the “Lesion Index after 10 days” value was 7.5 and the “Lesion Index after 3 days” value amounted to 2.7.
On the same counts, the results for `CCCCOc1c(O)c2cccc(O)c2oc1=O` [Compound 179] are 8.4 and 3.6.
On to `CCCCCCC=COc1c(O)c2cccc(O)c2oc1=O` [Compound 196], for which, in data set [2], the “Lesion Index after 10 days” value was determined as 7.4 and the “Lesion Index after 3 days” value stood at 3.3.
For `CCCCCCOc1c(O)c2cccc(OCCCC)c2oc1=O` [Compound 214], in data set [2], the “Lesion Index after 10 days” value came out at 7.9 and the “Lesion Index after 3 days” value is given as 3.5.
For the molecule `CCCCOc1c(O)c2c(OCCO)cccc2oc1=O` [Compound 237], in data set [2], the “Lesion Index after 10 days” value was 7.9 and the “Lesion Index after 3 days” value is recorded as 3.4.
On the same counts, the results for `CCCCC(CC)Oc1c(O)c2c(OCCO)cccc2oc1=O` (centres unmarked) [Compound 244] are 7.4 and 3.5.
For the molecule `CCCCOc1c(O)c2c(OCCCO)cccc2oc1=O` [Compound 261], in data set [2], the “Lesion Index after 10 days” value is on record as 7.6 and the “Lesion Index after 3 days” value is 3.7.
Taken in the same sequence, the figures for `CCCCCCCCOc1c(O)c2c(OCC(O)CO)cccc2oc1=O` (centres unmarked) [Compound 280] were 7.9 and 2.7.
Regarding `CCCCOc1c(O)c2c(OCC(=O)O)cccc2oc1=O` [Compound 295], in data set [2], the “Lesion Index after 10 days” value amounted to 7.2 and the “Lesion Index after 3 days” value was determined as 3.0.
`CCCCCCCCOc1c(O)c2c(OCCCCC(=O)O)cccc2oc1=O` [Compound 333]: in data set [2], the “Lesion Index after 10 days” value was 7.4 and the “Lesion Index after 3 days” value turned out to be 3.0.
On to `CC(C)CCCOc1c(O)c2cc(OCCO)ccc2oc1=O` [Compound 347], for which, in data set [2], the “Lesion Index after 10 days” value was found to be 8.1 and the “Lesion Index after 3 days” value was found to be 2.3.
On the same counts, the results for `CCCCCCOc1c(O)c2cc(OCCC(O)CO)ccc2oc1=O` (centres unmarked) [Compound 388] are 7.5 and 2.9.
For `CCCCCCCCOc1c(O)c2cc(OCCCC(=O)O)ccc2oc1=O` [Compound 429], in data set [2], the “Lesion Index after 10 days” value was determined as 7.9 and the “Lesion Index after 3 days” value is 2.2.
Turning to `CC(C)CCCOc1c(O)c2ccc(OCCO)cc2oc1=O` [Compound 449], in data set [2], the “Lesion Index after 10 days” value came to 7.3 and the “Lesion Index after 3 days” value is recorded as 2.8.
On the same counts, the results for `CCCCCCCCOc1c(O)c2ccc(OCCCO)cc2oc1=O` [Compound 468] are 7.8 and 2.8.
In the case of `CCCCC(CC)Oc1c(O)c2ccc(OCCCCO)cc2oc1=O` (centres unmarked) [Compound 477], in data set [2], the “Lesion Index after 10 days” value is on record as 7.7 and the “Lesion Index after 3 days” value is recorded as 2.9.
In the case of `CCCCCCCCCCOc1c(O)c2ccc(OCC(O)CO)cc2oc1=O` (centres unmarked) [Compound 485], in data set [2], the “Lesion Index after 10 days” value was determined as 7.9 and the “Lesion Index after 3 days” value is recorded as 2.8.
`CCCCCCCCOc1c(O)c2ccc(OCCC(O)CO)cc2oc1=O` (centres unmarked) [Compound 491]: in data set [2], the “Lesion Index after 10 days” value is reported as 7.4 and the “Lesion Index after 3 days” value was 2.9.
As for `CCCCC(CC)Oc1c(O)c2ccc(OCC(=O)O)cc2oc1=O` (centres unmarked) [Compound 506], in data set [2], the “Lesion Index after 10 days” value is reported as 7.3 and the “Lesion Index after 3 days” value was found to be 2.7.
Turning to `CCCCCCOc1c(O)c2cccc(OCCO)c2oc1=O` [Compound 547], in data set [2], the “Lesion Index after 10 days” value came to 7.2 and the “Lesion Index after 3 days” value is reported as 3.0.
`CC(C)CCCOc1c(O)c2cccc(OCCO)c2oc1=O` [Compound 551]: in data set [2], the “Lesion Index after 10 days” value is given as 7.8 and the “Lesion Index after 3 days” value worked out at 2.5.
On the same counts, the results for `CCCCCCCCOc1c(O)c2cccc(OCCCC(=O)O)c2oc1=O` [Compound 633] are 7.4 and 2.6.

For orientation: half-life means the time in which the quantity being followed falls by half.
